Reference: ChEMBL document CHEMBL5154691, “Discovery of novel verinurad analogs as dual inhibitors of URAT1 and GLUT9 with improved Druggability for the treatment of hyperuricemia” (Eur J Med Chem, 2022)

Columns and labels:
[1] = Cmax in Sprague-Dawley rat at 5 mg/kg, iv measured upto 36 hrs by LC-MS/MS analysis; assay type: ADME, organism-based; design: time < 36 hrs, dose 5 mg/kg, route iv; conditions: in vivo
[2] = Inhibition of URAT1 F241Y mutant (unknown origin)-mediated 14C-uric acid uptake expressed in HEK293 cells using 14C-uric acid as substrate preincubated for 30 mins followed by substrate addition and measured after 15 mins by liquid scintillation counting analysis; assay type: cell-based; conditions: Homo sapiens
[3] = Inhibition of URAT1 R477K mutant (unknown origin)-mediated 14C-uric acid uptake expressed in HEK293 cells using 14C-uric acid as substrate preincubated for 30 mins followed by substrate addition and measured after 15 mins by liquid scintillation counting analysis; assay type: cell-based; conditions: Homo sapiens
[4] = Inhibition of URAT1 F365Y mutant (unknown origin)-mediated 14C-uric acid uptake expressed in HEK293 cells using 14C-uric acid as substrate preincubated for 30 mins followed by substrate addition and measured after 15 mins by liquid scintillation counting analysis; assay type: cell-based; conditions: Homo sapiens
[5] = Half life in Sprague-Dawley rat at 5 mg/kg, po measured upto 36 hrs by LC-MS/MS analysis; assay type: ADME, organism-based; conditions: in vivo
[6] = Cytotoxicity against human HK-2 cells assessed as reduction in cell viability incubated for 24 hrs by MTT assay; assay type: toxicity, cell-based
[7] = AUC (0 to infinity) in Sprague-Dawley rat at 5 mg/kg, po by LC-MS/MS analysis; assay type: ADME, organism-based; design: time infinity, dose 5 mg/kg, route po; conditions: in vivo
[8] = Inhibition of URAT1 I481M mutant (unknown origin)-mediated 14C-uric acid uptake expressed in HEK293 cells using 14C-uric acid as substrate preincubated for 30 mins followed by substrate addition and measured after 15 mins by liquid scintillation counting analysis; assay type: cell-based; conditions: Homo sapiens
[9] = Tmax in Sprague-Dawley rat at 5 mg/kg, po measured upto 36 hrs by LC-MS/MS analysis; assay type: ADME, organism-based; conditions: in vivo
[10] = target: T1, Broad substrate specificity ATP-binding cassette transporter ABCG2 (Homo sapiens, UniProt Q9UNQ0); experiment: Inhibition of ABCG2 (unknown origin) expressed in HEK293 cells membrane vesicles assessed as inhibition of ATP-induced 14C-uric acid uptake preincubated for 15 mins followed by incubation with ATP and substrate for 5 mins by liquid scintillation counting analysis; assay type: toxicity, cell membranes, Membrane vesicle
T1 sequence (Q9UNQ0 whole entry): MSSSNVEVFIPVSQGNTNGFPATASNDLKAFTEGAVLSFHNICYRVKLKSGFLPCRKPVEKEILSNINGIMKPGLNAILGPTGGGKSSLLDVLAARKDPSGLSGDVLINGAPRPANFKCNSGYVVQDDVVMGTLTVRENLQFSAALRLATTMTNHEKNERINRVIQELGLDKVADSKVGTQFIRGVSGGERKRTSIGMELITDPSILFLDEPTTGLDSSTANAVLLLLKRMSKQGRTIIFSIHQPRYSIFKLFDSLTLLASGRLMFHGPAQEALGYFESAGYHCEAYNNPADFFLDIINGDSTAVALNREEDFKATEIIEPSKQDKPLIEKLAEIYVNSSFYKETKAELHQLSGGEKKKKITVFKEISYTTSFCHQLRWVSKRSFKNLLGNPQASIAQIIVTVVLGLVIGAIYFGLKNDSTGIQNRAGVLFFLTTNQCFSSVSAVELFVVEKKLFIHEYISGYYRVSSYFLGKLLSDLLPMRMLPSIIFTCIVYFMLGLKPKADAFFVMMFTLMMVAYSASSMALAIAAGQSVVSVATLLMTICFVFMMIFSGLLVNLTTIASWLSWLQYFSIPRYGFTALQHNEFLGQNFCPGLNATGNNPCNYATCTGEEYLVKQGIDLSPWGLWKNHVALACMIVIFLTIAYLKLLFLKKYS

[11] = Tmax in Sprague-Dawley rat at 5 mg/kg, iv measured upto 36 hrs by LC-MS/MS analysis; assay type: ADME, organism-based; conditions: in vivo

With `N#Cc1ccc(Nc2cnccc2SCc2ccccc2C(=O)[O-])c2ccccc12.[Na+]` the Cmax [1] was 11100 ng/mL, the IC50 [2] was 0.31 µM and the IC50 [3] was 2.17 µM. It also gave an IC50 [4] of 1.57 µM, a half-life [5] of 308 min and an IC50 at 24 h [6] of 208 µM. The AUC(0-inf) [7] was 5660 ng·h/mL, the IC50 [8] was 0.31 µM and the Tmax [9] was 30 min. The IC50 [10] was 26.7 µM and the Tmax [11] was 10.2 min.
